Data: patent publication US20240360157A1, “TYK2 INHIBITORS” (BIOGEN MA INC., priority 2021, published 2024)

Tests used:
Format in all cases: biochemical
[1] = biological target: human JAK2 catalytic kinase (JH1) domain (Homo sapiens (Human), UniProt O60674); experiment: ADP-Glo Kinase Assay, recombinant JAK2 catalytic kinase (JH1) domain; conditions: recombinant JH1 domain 0.2 nM, 15 μM ATP, JAK3-974 peptide, mean, read-out: JAK2 biochem IC50 (nM) Mean
Experimental: (§1) Compounds of the disclosure were assessed for their ability to inhibit TYK2, JAK1, JAK2, and JAK3 activity. The inhibitory properties of the compounds of the disclosure described herein can be evidenced by testing in any one of the following protocols.
(§2) The kinase activity of recombinantly generated catalytic kinase (also known as JH1) domain of human JAK1, JAK2, JAK3 and TYK2 were evaluated in a plate-based assay using the ADP-Glo™ Kinase Assay platform. Specifically, 4 nM of recombinant JAK1 kinase domain is used to phosphorylate 50 μM of a JAK3-342 (sequence ALVDGYFRLTT) peptide in the presence of 35 μM ATP. Catalytic activities of recombinant JAK2, JAK3 and TYK2 kinase domain (0.2, 0.3 and 2 nM, respectively) are evaluated by the phosphorylation status of the JAK3-974 (50 μM; sequence LPLDKDYYVVR) peptide with the addition of ATP (15, 4 and 10 μM, respectively). The reactions proceed for 100 minutes and the catalytic activity is quantified by first depleting the unused ATP, converting the hydrolyzed ADP into ATP to generate luminescence in a luciferase reaction; which is the basis of the ADP-Glo platform. Compounds are tested at either 10 μM or 1 μM top concentration, 11 points of 3-fold dilution. The data is normalized and the percent activity versus log concentration of compound is fitted with a 4-parameter logistic model to generate a curve and an IC50 value.

[2] = biological target: human JAK1 catalytic kinase (JH1) domain (Homo sapiens (Human), UniProt P23458); experiment: ADP-Glo Kinase Assay, recombinant JAK1 catalytic kinase (JH1) domain; conditions: recombinant JH1 domain 4 nM, 35 μM ATP, JAK3-342 peptide, mean, read-out: JAK1 biochem IC50 (nM) Mean
Chain of human JAK1 catalytic kinase (JH1) domain (P23458 875-1153): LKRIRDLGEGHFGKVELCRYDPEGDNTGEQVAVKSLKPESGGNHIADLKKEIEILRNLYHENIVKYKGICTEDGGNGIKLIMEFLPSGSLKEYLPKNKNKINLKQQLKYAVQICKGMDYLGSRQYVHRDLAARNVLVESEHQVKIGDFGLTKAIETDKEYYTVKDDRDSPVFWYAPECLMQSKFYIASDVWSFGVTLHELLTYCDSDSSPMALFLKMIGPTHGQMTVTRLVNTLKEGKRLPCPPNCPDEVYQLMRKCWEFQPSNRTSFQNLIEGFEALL
Experimental: as §1, §2

[3] = biological target: human TYK2 catalytic kinase (JH1) domain (Homo sapiens (Human), UniProt P29597); experiment: ADP-Glo Kinase Assay, recombinant TYK2 catalytic kinase (JH1) domain; conditions: recombinant JH1 domain 2 nM, 10 μM ATP, JAK3-974 peptide, mean, read-out: TYK2 biochem IC50 (nM) Mean
Chain of human TYK2 catalytic kinase (JH1) domain (P29597 897-1176): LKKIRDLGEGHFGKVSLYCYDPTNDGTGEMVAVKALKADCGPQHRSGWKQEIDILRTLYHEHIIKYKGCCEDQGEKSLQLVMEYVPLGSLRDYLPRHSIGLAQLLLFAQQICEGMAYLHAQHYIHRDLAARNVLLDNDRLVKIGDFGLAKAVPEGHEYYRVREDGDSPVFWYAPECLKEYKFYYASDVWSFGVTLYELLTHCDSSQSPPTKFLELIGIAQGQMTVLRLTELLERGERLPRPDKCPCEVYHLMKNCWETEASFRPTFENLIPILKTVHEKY
Experimental: as §1, §2

[4] = biological target: human JAK3 catalytic kinase (JH1) domain (Homo sapiens (Human), UniProt P52333); experiment: ADP-Glo Kinase Assay, recombinant JAK3 catalytic kinase (JH1) domain; conditions: recombinant JH1 domain 0.3 nM, 4 μM ATP, JAK3-974 peptide, mean, read-out: JAK3 biochem IC50 (nM) Mean
Chain of human JAK3 catalytic kinase (JH1) domain (P52333 822-1111): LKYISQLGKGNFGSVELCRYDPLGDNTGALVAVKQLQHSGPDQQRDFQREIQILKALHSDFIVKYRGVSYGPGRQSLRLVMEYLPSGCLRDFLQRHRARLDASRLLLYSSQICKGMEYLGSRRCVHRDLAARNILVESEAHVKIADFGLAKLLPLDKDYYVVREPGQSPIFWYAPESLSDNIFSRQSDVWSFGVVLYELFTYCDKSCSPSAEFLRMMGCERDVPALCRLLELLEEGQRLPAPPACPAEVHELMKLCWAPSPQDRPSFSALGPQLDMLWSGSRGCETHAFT
Experimental: as §1, §2

Chain of human JAK2 catalytic kinase (JH1) domain (O60674 849-1124): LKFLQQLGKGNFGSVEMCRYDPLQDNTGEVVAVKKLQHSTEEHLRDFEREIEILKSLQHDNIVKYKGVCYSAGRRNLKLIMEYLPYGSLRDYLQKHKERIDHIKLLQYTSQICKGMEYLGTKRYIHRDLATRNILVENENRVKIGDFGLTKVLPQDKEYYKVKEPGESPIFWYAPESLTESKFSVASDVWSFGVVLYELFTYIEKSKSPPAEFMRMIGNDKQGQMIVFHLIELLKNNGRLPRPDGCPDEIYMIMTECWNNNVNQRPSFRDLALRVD

Compound	IC50 [1]	IC50 [2]	IC50 [3]	IC50 [4]
N#C[C@@H]1C[C@H]1C(=O)N1C2CCC1CN(c1ncnn3cc(-c4cnn(C(F)F)c4)cc13)C2 (single isomer, unassigned) [Example 78]	1510 nM	869 nM	120 nM	6880 nM
O=C([C@@H]1C[C@H]1F)N1C2CCC1CN(c1ccnn3cc(-c4ccnc(C(F)F)c4)cc13)C2 [Example 101, (3-(6-(2-(difluoromethyl)pyridin-4-yl)pyrrolo[1,2-b]pyridazin-4-yl)-3,8-diazabicyclo[3.2.1]octan-8-yl)((1S,2R)-2-fluorocyclopropyl)methanone]	27 nM	22 nM	1.4 nM	541 nM
COc1cc(-c2cc3c(N4CC5CCC(C4)N5C(=O)[C@@H]4C[C@H]4F)ccnn3c2)cnn1 [Example 137, ((1S,2R)-2-fluorocyclopropyl)(3-(6-(6-methoxypyridazin-4-yl)pyrrolo[1,2-b]pyridazin-4-yl)-3,8-diazabicyclo[3.2.1]octan-8-yl)methanone]	220 nM	150 nM	17.6 nM	4200 nM
O=C(C1CC1)N1C2CCC1CN(c1ncnn3cc(-c4cnn(C5CCOCC5)c4)cc13)C2 [Example 153]	1520 nM	1280 nM	99.2 nM	1900 nM
O=C([C@H]1C[C@@H]1F)N1C2CCC1CN(c1ncnn3cc(-c4cnn(C(F)F)c4)cc13)C2 [Example 4, (3-(6-(1-(difluoromethyl)-1H-pyrazol-4-yl)pyrrolo[2,1-f][1,2,4]triazin-4-yl)-3,8-diazabicyclo[3.2.1]octan-8-yl)((1R,2S)-2-fluorocyclopropyl)methanone]	1450 nM	452 nM	73.6 nM	776 nM
O=C([C@@H]1C[C@H]1F)N1C2CCC1CN(c1ncnn3cc(-c4cnn(C(F)F)c4)cc13)C2 [Example 76, (3-(6-(1-(difluoromethyl)-1H-pyrazol-4-yl)pyrrolo[2,1-f][1,2,4]triazin-4-yl)-3,8-diazabicyclo[3.2.1]octan-8-yl)((1S,2R)-2-fluorocyclopropyl)methanone]	850 nM	574 nM	23.1 nM	6270 nM
O=C(C1CC(F)(F)C1)N1C2CCC1CN(c1ncnn3cc(-c4cnn(C(F)F)c4)cc13)C2 [Example 55, (3,3-difluorocyclobutyl)(3-(6-(1-(difluoromethyl)-1H-pyrazol-4-yl)pyrrolo[2,1-f][1,2,4]triazin-4-yl)-3,8-diazabicyclo[3.2.1]octan-8-yl)methanone]	7180 nM	2790 nM	290 nM	8580 nM
COc1cc(-c2nc3c(N4CC5CCC(C4)N5S(=O)(=O)C4CC4)ccnc3[nH]2)ccn1 [Example 196]	168 nM	216 nM	66.3 nM	1000 nM
Cn1cc(-c2cc3c(N4CC5CCC(C4)N5C(=O)[C@@H]4C[C@H]4F)ccnc3[nH]2)c(F)n1 [Example 244, (3-(2-(3-fluoro-1-methyl-1H-pyrazol-4-yl)-1H-pyrrolo[2,3-b]pyridin-4-yl)-3,8-diazabicyclo[3.2.1]octan-8-yl)((1S,2R)-2-fluorocyclopropyl)methanone]	4 nM	18 nM	0.2 nM	73 nM
O=C([C@@H]1C[C@H]1F)N1C2CCC1CN(c1ncnn3cc(-c4ccnc(F)c4)cc13)C2 [Example 164]	1300 nM	447 nM	48.8 nM	7250 nM
N#CC1CC(C(=O)N2C3CCC2CN(c2ncnn4cc(-c5cnn(C(F)F)c5)cc24)C3)C1 (stereo not shown) [Example 12, 3-(3-(6-(1-(difluoromethyl)-1H-pyrazol-4-yl)pyrrolo[2,1-f][1,2,4]triazin-4-yl)-3,8-diazabicyclo[3.2.1]octane-8-carbonyl)cyclobutane-1-carbonitrile]	7960 nM	2980 nM	656 nM	8350 nM
COc1cncc(-c2cc3c(N4CC5CCC(C4)N5C(=O)[C@@H]4C[C@H]4F)ccnn3c2)n1 [Example 123, ((1S,2R)-2-fluorocyclopropyl)(3-(6-(6-methoxypyrazin-2-yl)pyrrolo[1,2-b]pyridazin-4-yl)-3,8-diazabicyclo[3.2.1]octan-8-yl)methanone]	386 nM	302 nM	23.7 nM	5510 nM
O=C([C@@H]1C[C@H]1F)N1C2CCC1CN(c1ccnn3cc(-c4ccnc(C(F)(F)F)c4)cc13)C2 [Example 112, ((1S,2R)-2-fluorocyclopropyl)(3-(6-(2-(trifluoromethyl)pyridin-4-yl)pyrrolo[1,2-b]pyridazin-4-yl)-3,8-diazabicyclo[3.2.1]octan-8-yl)methanone]	38 nM	37 nM	2.9 nM	835 nM
O=C([C@@H]1C[C@H]1F)N1C2CCC1CN(c1ncnc3[nH]c(-c4ccc(C(F)(F)F)nc4)cc13)C2 [Example 228, ((1S,2R)-2-fluorocyclopropyl)(3-(6-(6-(trifluoromethyl)pyridin-3-yl)-7H-pyrrolo[2,3-d]pyrimidin-4-yl)-3,8-diazabicyclo[3.2.1]octan-8-yl)methanone]	813 nM	315 nM	41.2 nM	7440 nM
Cn1cc(-c2cc3c(N4CC5CCC(C4)N5C(=O)[C@@H]4C[C@@H]4F)ncnn3c2)cn1 [Example 80, ((1S,2S)-2-fluorocyclopropyl)(3-(6-(1-methyl-1H-pyrazol-4-yl)pyrrolo[2,1-f][1,2,4]triazin-4-yl)-3,8-diazabicyclo[3.2.1]octan-8-yl)methanone]	8020 nM	1340 nM	483 nM	2050 nM
Cc1cc(-c2cc3c(N4CC5CCC(C4)N5C(=O)[C@@H]4C[C@H]4F)ncnc3[nH]2)ccn1 [Example 230, ((1S,2R)-2-fluorocyclopropyl)(3-(6-(2-methylpyridin-4-yl)-7H-pyrrolo[2,3-d]pyrimidin-4-yl)-3,8-diazabicyclo[3.2.1]octan-8-yl)methanone]	218 nM	91 nM	8.2 nM	742 nM
Cc1cc(-c2cc3c(N4CC5CCC(C4)N5C(=O)[C@@H]4C[C@H]4F)ncnn3c2)ccn1 [Example 91, ((1S,2R)-2-fluorocyclopropyl)(3-(6-(2-methylpyridin-4-yl)pyrrolo[2,1-f][1,2,4]triazin-4-yl)-3,8-diazabicyclo[3.2.1]octan-8-yl)methanone]	624 nM	316 nM	21.8 nM	4500 nM
CCC(=O)N1C2CCC1CN(c1ncnn3cc(-c4cnn(C)c4)cc13)C2 [Example 57, 1-(3-(6-(1-methyl-1H-pyrazol-4-yl)pyrrolo[2,1-f][1,2,4]triazin-4-yl)-3,8-diazabicyclo[3.2.1]octan-8-yl)propan-1-one]	10000 nM	5140 nM	941 nM	7850 nM
O=C([C@H]1C[C@@H]1CO)N1C2CCC1CN(c1ncnn3cc(-c4cnn(C(F)F)c4)cc13)C2 (racemic) [Example 38, Rac-(3-(6-(1-(difluoromethyl)-1H-pyrazol-4-yl)pyrrolo[2,1-f][1,2,4]triazin-4-yl)-3,8-diazabicyclo[3.2.1]octan-8-yl)((1S,2S)-2-(hydroxymethyl)cyclopropyl)methanone]	8260 nM	1640 nM	326 nM	≥ 10000 nM
O=C([C@@H]1C[C@H]1F)N1C2CCC1CN(c1ncnn3cc(-c4ccc(=O)n(C(F)F)c4)cc13)C2 [Example 110, 1-(difluoromethyl)-5-(4-(8-((1S,2R)-2-fluorocyclopropane-1-carbonyl)-3,8-diazabicyclo[3.2.1]octan-3-yl)pyrrolo[2,1-f][1,2,4]triazin-6-yl)pyridin-2(1H)-one]	812 nM	758 nM	56.5 nM	3960 nM
O=C([C@@H]1C[C@H]1F)N1C2CCC1CN(c1ccnn3cc(-c4ccnnc4)cc13)C2 [Example 109, ((1S,2R)-2-fluorocyclopropyl)(3-(6-(pyridazin-4-yl)pyrrolo[1,2-b]pyridazin-4-yl)-3,8-diazabicyclo[3.2.1]octan-8-yl)methanone]	45 nM	38 nM	3.2 nM	847 nM
O=C(CC(F)(F)F)N1C2CCC1CN(c1ncnn3cc(-c4cnn(C(F)F)c4)cc13)C2 [Example 43, 1-(3-(6-(1-(difluoromethyl)-1H-pyrazol-4-yl)pyrrolo[2,1-f][1,2,4]triazin-4-yl)-3,8-diazabicyclo[3.2.1]octan-8-yl)-3,3,3-trifluoropropan-1-one]	5200 nM	892 nM	223 nM	4640 nM
